In article PMC11980366, “Natural compounds target the M23B zinc metallopeptidase Mpg to modulate Neisseria gonorrhoeae Type IV pilus expression” (mBio, 2025):

Target: Mpg (Neisseria gonorrhoeae, UniProt Q5F676)
Test: fluorescence thermal shift (Sypro-Orange)
Type: binding
Details: read-out: dTm at 5 μM

Mpg, sequence (Q5F676 31-430): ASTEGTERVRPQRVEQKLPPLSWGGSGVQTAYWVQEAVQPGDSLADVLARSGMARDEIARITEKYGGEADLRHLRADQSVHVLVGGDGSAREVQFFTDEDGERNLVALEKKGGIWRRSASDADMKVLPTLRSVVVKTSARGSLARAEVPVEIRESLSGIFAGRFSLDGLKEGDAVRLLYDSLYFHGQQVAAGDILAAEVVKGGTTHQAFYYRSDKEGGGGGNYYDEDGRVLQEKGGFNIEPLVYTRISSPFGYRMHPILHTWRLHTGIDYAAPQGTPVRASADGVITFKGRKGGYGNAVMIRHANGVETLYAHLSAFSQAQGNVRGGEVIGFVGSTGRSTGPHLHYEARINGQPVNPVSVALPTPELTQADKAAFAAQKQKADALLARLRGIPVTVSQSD

SMILES: O=C1O[C@H]2[C@@H]3OC(=O)c4cc(O)c(O)c(O)c4-c4c(O)c(O)c5oc(=O)c6c(c(O)c(O)c7oc(=O)c4c5c76)-c4c(cc(O)c(O)c4O)C(=O)OC[C@H]3OC(O)[C@@H]2OC(=O)c2cc(O)c(O)c(O)c2-c2c1cc(O)c(O)c2O (mixture of isomers) [punicalagin]
- ΔTm at 5 µM: -4.4 °C

SMILES: O=C(O)C[C@@H]1C(=O)O[C@H]2[C@H](OC(=O)c3cc(O)c(O)c(O)c3)[C@@H](OC(=O)c3cc(O)c(O)c4c3[C@H]1[C@@H](O)C(=O)O4)[C@H](OC(=O)c1cc(O)c(O)c(O)c1)O[C@@H]2COC(=O)c1cc(O)c(O)c(O)c1 [chebulinic acid]
- ΔTm at 5 µM: -2.9 °C
